The values below come from publication PMC10281575, “PfCRT mutations conferring piperaquine resistance in falciparum malaria shape the kinetics of quinoline drug binding and transport” (PLOS Pathogens, 2023).

The test system of one assay is Dd2^3D7crt parasites. On the set-up: method as in Okombo et al. (2022). The following applies: ref Okombo et al. (2022); cited from earlier work.
The subject of another assay is Dd2^Dd2crt parasites. Also on record: method as in Okombo et al. (2022). The following applies: ref Okombo et al. (2022); cited from earlier work.
For another assay, the target named is T1, PfCRT^Dd2 (Plasmodium falciparum, UniProt Q8IBZ9, A220S/I356T/K76T/M74I/N326S/N75E/Q271E/R371I).
T1 sequence (Q8IBZ9 1-424 M74I/N75E/K76T/A220S/Q271E/N326S/I356T/R371I): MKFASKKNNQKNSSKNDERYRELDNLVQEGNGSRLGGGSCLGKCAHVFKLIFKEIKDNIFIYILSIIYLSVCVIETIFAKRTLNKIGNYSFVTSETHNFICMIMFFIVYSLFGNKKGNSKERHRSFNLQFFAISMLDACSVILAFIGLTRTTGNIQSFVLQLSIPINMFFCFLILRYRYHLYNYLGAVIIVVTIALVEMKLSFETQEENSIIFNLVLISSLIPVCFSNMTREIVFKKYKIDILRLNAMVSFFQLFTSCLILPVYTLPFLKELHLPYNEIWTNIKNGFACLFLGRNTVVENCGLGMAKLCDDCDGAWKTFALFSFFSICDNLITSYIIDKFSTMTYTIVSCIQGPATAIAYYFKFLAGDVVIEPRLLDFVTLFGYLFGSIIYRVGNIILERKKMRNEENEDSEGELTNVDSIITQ
The following applies: read-out: apparent Km for CQ on PfCRT^Dd2, cited from earlier work.

For the next assay, the target named is T2, PfCRT^Dd2_S257A (Plasmodium falciparum, UniProt Q8IBZ9, A220S/I356T/K76T/M74I/N326S/N75E/Q271E/R371I/S257A).
T2 construct: expressed in transfected cells; host or cells: Xenopus laevis oocytes
T2 sequence (Q8IBZ9 1-424 M74I/N75E/K76T/A220S/S257A/Q271E/N326S/I356T/R371I): T1 sequence (Q8IBZ9 1-424 M74I/N75E/K76T/A220S/Q271E/N326S/I356T/R371I) with S257A
The assay is described as follows: PfCRT-mediated CQ transport in oocytes expressing PfCRT^Dd2_S257A. The class given is cell-based. The following applies: S6 Fig; per biological replicate. From the text:
(§1) The docking results reflect the differences in the experimentally measured affinities of the two compounds for PfCRT^Dd2, with CQ having less favorable docking scores compared to PPQ (S1 Table). […] In this pose, CQ forms polar contacts via the two positively charged nitrogens: the nitrogen of the diethylamino tail makes a salt bridge with E75 on TM1 and the nitrogen of the 4-amminoquinoline ring makes a hydrogen bond with S257 on TM7. Hydrophobic contacts are established by the quinoline ring with I260, V141, and F145.
(§2) Drug transport assays were performed as previously described. Briefly, measurements of radiolabeled drug uptake were made over 1 h, unless otherwise specified. […] Where specified, one or more unlabeled drugs were also present at the indicated concentrations. […] The radioactivity in the sample was measured using a liquid scintillation analyser Tri-Carb 4910 TR (PerkinElmer). Water-injected oocytes were analyzed in parallel as a negative control. The buffer from each condition was measured in duplicate in parallel to each experiment to transform counts per minute into pmol of drug. Drug uptake attributable to PfCRT was determined by subtracting the background uptake from water-injected oocytes from that of PfCRT-expressing oocytes. […]

The next assay has as its target T3, PfCRT^Dd2_I260A (Plasmodium falciparum, UniProt Q8IBZ9, A220S/I260A/I356T/K76T/M74I/N326S/N75E/Q271E/R371I).
T3 construct: expressed in transfected cells; host or cells: Xenopus laevis oocytes
T3 sequence (Q8IBZ9 1-424 M74I/N75E/K76T/A220S/I260A/Q271E/N326S/I356T/R371I): T1 sequence (Q8IBZ9 1-424 M74I/N75E/K76T/A220S/Q271E/N326S/I356T/R371I) with I260A
Description: PfCRT-mediated CQ transport in oocytes expressing PfCRT^Dd2_I260A. The class given is cell-based. The following applies: S6 Fig; per biological replicate.
Source text: as §1, §2

Structures are written as SMILES. Substitutions are numbered along the chain they refer to. “And” between values parts separate entries of the source, which are not always exact repeats. Equal entries are not always repeated. Where two headings read alike, the source gives them in different places.

In the case of `Clc1ccc2c(N3CCN(CCCN4CCN(c5ccnc6cc(Cl)ccc56)CC4)CC3)ccnc2c1` [PPQ, piperaquine], the drug accumulation ratio is 2000 fold in the assay with Dd2^3D7crt parasites and 1900 fold with Dd2^Dd2crt parasites.

By Km is commonly meant the substrate concentration at which the rate is half of its maximum. Take `CCN(CC)CCCC(C)Nc1ccnc2cc(Cl)ccc12` (stereo not drawn) [CQ, chloroquine]: the Km at PfCRT^Dd2 (ref Bellanca et al., 2014) was 250 ± 30 µM; on PfCRT^Dd2 (ref Martin et al. 2009), 245 ± 3 µM. Also, the “PfCRTDd2_S257A-mediated CQ transport” value at PfCRT^Dd2_S257A is 1.610 pmol oocyte-1 h-1 and 1.360 pmol oocyte-1 h-1 and 1.980 pmol oocyte-1 h-1. Moreover, on PfCRT^Dd2_I260A, the “PfCRTDd2_I260A-mediated CQ transport” value was 2.260 pmol oocyte-1 h-1 and 2.400 pmol oocyte-1 h-1 and 3.540 pmol oocyte-1 h-1.
